Measurements reported in patent US10035804B2, “Spirodiamine derivatives as aldosterone synthase inhibitors” (Hoffmann-La Roche Inc., priority 2014, dated 2018).

Key:
human CYP11B2 = human CYP11B2 (Homo sapiens (Human), UniProt P19099); assay: G-402 cellular enzyme assay, human CYP11B2 (aldosterone release); format: cell-based; conditions: G-402 cells expressing human CYP11B2; 1 μM Deoxycorticosterone; aldosterone in supernatant after 16 h
Description: (§1) Herein we identified the use of the G-402 cell line as a host cell to ectopically express (transiently or stably) enzymes of the CYP11 family. Specifically we developed stable G-402 cells expressing ectopically human CYP11B1, human CYP11B2, human CYP11A1, cynmolgus CYP11B1 or cynomolgus CYP11B2 enzyme activity. Importantly the identified cell line G-402 expresses co-factors (adrenodoxin and adrenodoxin reductase) important for the activity of the CYP11 family and no relevant enzyme activity of the CYP11 family (in comparison to H295R cells) was detected in these cells. Therefore the G-402 cell line is uniquely suited as a host cell for the ectopic expression of enzymes from the CYP11 family.
(§2) G-402 cells can be obtained from ATCC (CRL-1440) and were originally derived from a renal leiomyoblastoma.
(§3) The expression plasmids contains the ORF for either human/cyno CYP11B1 or CYP11B2 under the control of a suitable promoter (CMV-promoter) and a suitable resistance marker (neomycin). Using standard techniques the expression plasmid is transfected into G-402 cells and these cells are then selected for expressing the given resistance markers. Individual cell-clones are then selected and assessed for displaying the desired enzymatic activity using 11-Deoxycorticosterone (Cyp11B2) or 11-Deoxycortisol (Cyp11B1) as a substrate.
(§4) G-402 cells expressing CYP11 constructs were established as described above and maintained in McCoy's 5a Medium Modified, ATCC Catalog No. 30-2007 containing 10% FCS and 400 μg/ml G418 (Geneticin) at 37° C. under an atmosphere of 5% CO2/95% air. Cellular enzyme assays were performed in DMEM/F12 medium containing 2.5% charcoal treated FCS and appropriate concentration of substrate (0.3-10 uM 11-Deoxycorticosterone, 11-Deoxycortisol or Corticosterone). For assaying enzymatic activity, cells were plated onto 96 well plates and incubated for 16 h. An aliquot of the supernatant is then transferred and analyzed for the concentration of the expected product (Aldosterone for CYP11B2; Cortisol for CYP11B1). The concentrations of these steroids can be determined using HTRF assays from CisBio analyzing either Aldosterone or Cortisol.
(§5) Inhibition of the release of produced steroids can be used as a measure of the respective enzyme inhibition by test compounds added during the cellular enzyme assay. The dose dependent inhibition of enzymatic activity by a compound is calculated by means of plotting added inhibitor concentrations (x-axes) vs. measured steroid/product level (y-axes). The inhibition is then calculated by fitting the following 4-parameter sigmoidal function (Morgan-Mercer-Flodin (MMF) model) to the raw data points using the least squares method:
(§6) [formula] wherein, A is the maximum y value, B is the EC50 factor determined using XLFit, C is the minimum y value and D is the slope value.
(§7) EC50 values for compounds claimed herein were tested with the G402-based assay system described. Cyp11B2 enzyme activity was tested in presence of 1 μM Deoxycorticosterone and variable amounts of inhibitors; Cyp11B1 enzyme activity was tested in presence of 1 μM Deoxycortisol and variable amounts of inhibitors.

human CYP11B1 = human CYP11B1 (Homo sapiens (Human), UniProt P15538); assay: G-402 cellular enzyme assay, human CYP11B1 (cortisol release); format: cell-based; conditions: G-402 cells expressing human CYP11B1; 1 μM Deoxycortisol; cortisol in supernatant after 16 h
Sequence of human CYP11B1 (P15538 25-503): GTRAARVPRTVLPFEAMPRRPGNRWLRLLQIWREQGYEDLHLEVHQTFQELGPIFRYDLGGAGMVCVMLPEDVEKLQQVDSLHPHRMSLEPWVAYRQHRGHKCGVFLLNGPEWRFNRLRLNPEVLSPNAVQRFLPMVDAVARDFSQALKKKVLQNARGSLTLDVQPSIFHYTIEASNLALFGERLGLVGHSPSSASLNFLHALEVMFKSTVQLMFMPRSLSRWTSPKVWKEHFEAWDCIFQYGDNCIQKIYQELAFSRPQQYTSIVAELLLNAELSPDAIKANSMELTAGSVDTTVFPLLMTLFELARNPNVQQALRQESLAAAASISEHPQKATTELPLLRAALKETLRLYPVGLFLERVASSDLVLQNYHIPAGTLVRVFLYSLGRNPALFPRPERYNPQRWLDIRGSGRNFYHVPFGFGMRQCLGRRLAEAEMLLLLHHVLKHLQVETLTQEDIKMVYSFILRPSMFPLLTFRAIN
Description: as §1, §2, §3, §4, §5, §6, §7

[1] = tested on: rat model of chronic kidney disease; conditions: cited from earlier work; for cardiac and aortic medial hypertrophy / renal effects (albuminuria, azotemia, renovascular hypertrophy, glomerular injury, PAI-1 and osteopontin mRNA, tubulointerstitial fibrosis): angiotensin II and high salt treated rats
[2] = tested on: rats with experimental heart failure; conditions: cited from earlier work
[3] = tested on: patients with primary aldosteronism; conditions: oral; cited from earlier work

Sequence of human CYP11B2 (P19099 25-503): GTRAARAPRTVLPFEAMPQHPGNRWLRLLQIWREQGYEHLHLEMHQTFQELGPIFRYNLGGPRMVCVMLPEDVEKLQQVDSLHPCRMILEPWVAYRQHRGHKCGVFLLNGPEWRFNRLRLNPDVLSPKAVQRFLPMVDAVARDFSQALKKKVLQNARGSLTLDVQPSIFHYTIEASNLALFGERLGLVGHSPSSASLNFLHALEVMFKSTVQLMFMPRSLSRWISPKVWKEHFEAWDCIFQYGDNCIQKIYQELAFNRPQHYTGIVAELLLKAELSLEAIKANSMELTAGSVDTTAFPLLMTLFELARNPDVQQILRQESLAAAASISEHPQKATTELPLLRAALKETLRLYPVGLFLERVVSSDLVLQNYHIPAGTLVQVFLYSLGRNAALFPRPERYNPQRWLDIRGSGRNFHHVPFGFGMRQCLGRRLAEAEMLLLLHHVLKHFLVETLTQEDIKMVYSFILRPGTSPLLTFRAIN

Row | Structure (SMILES) | EC50 (human CYP11B2) | EC50 (human CYP11B1) | also measured
1 | Cc1nc(C(=O)N2CC3(C2)CN(c2cncc(N4C(=O)c5ccc(Cl)cc5C4(C)C)c2)C3)co1 [Example 45, 5-Chloro-3,3-dimethyl-2-[5-[2-(2-methyloxazole-4-carbonyl)-2,6-diazaspiro[3.3]heptan-6-yl]-3-pyridyl]isoindolin-1-one] | 0.068 nM | 2.09 nM | 
2 | CC1(C)c2cc(Cl)ccc2C(=O)N1c1cncc(N2CC3(CN(C(=O)c4ncccc4C#N)C3)C2)c1 [Example 46, 2-[6-[5-(6-Chloro-1,1-dimethyl-3-oxo-isoindolin-2-yl)-3-pyridyl]-2,6-diazaspiro[3.3]heptane-2-carbonyl]pyridine-3-carbonitrile] | 0.0383 nM | 3.86 nM | 
3 | Cc1ncc(Cl)c(C(=O)N2CC3(C2)CN(c2cncc(N4C(=O)c5ccc(Cl)cc5C4(C)C)c2)C3)n1 [Example 47, 5-Chloro-2-[5-[2-(5-chloro-2-methyl-pyrimidine-4-carbonyl)-2,6-diazaspiro[3.3]heptan-6-yl]-3-pyridyl]-3,3-dimethyl-isoindolin-1-one] | 0.504 nM | 8.31 nM | 
4 | Cc1ncnc(C)c1C(=O)N1CC2(C1)CN(c1cncc(N3C(=O)c4ccc(Cl)cc4C3(C)C)c1)C2 [Example 48, 5-Chloro-2-[5-[2-(4,6-dimethylpyrimidine-5-carbonyl)-2,6-diazaspiro[3.3]heptan-6-yl]-3-pyridyl]-3,3-dimethyl-isoindolin-1-one] | 0.239 nM | > 30 nM | 
5 | Cc1ccnc(C)c1C(=O)N1CC2(C1)CN(c1cncc(N3C(=O)c4ccc(Cl)cc4C3(C)C)c1)C2 [Example 49, 5-Chloro-2-[5-[2-(2,4-dimethylpyridine-3-carbonyl)-2,6-diazaspiro[3.3]heptan-6-yl]-3-pyridyl]-3,3-dimethyl-isoindolin-1-one] | 0.111 nM | 5.07 nM | 
6 | CC1(C)c2cc(Cl)ccc2C(=O)N1c1cncc(N2CC3(CN(C(=O)c4cnccc4C#N)C3)C2)c1 [Example 50, 3-[6-[5-(6-Chloro-1,1-dimethyl-3-oxo-isoindolin-2-yl)-3-pyridyl]-2,6-diazaspiro[3.3]heptane-2-carbonyl]pyridine-4-carbonitrile] | 0.0248 nM | 16.8 nM | 
7 | Cn1cc(C(=O)N2CC3(C2)CN(c2cncc(N4CCc5cc(Cl)ccc5C4=O)c2)C3)cn1 [Example 53, 6-Chloro-2-[5-[2-(1-methylpyrazole-4-carbonyl)-2,6-diazaspiro[3.3]heptan-6-yl]-3-pyridyl]-3,4-dihydroisoquinolin-1-one] | 0.0459 nM | 14.6 nM | 
8 | Cc1ccncc1C(=O)N1CCC2(CC1)CN(c1cncc(N3C(=O)c4ccc(Cl)cc4C3(C)C)c1)C2 [Example 57, 5-Chloro-3,3-dimethyl-2-[5-[7-(4-methylpyridine-3-carbonyl)-2,7-diazaspiro[3.5]nonan-2-yl]-3-pyridyl]isoindolin-1-one] | 0.049 nM | 9.72 nM | 
9 | N#Cc1ccc([C@H]2CCCc3cncn32)cc1 [FAD286] |  |  | cardiac and aortic medial hypertrophy [1]: attenuated; renal effects (albuminuria, azotemia, renovascular hypertrophy, glomerular injury, PAI-1 and osteopontin mRNA, tubulointerstitial fibrosis) [1]: prevented these renal effects; plasma aldosterone ([1]; following 4 weeks of treatment): reduced; blood pressure and cardiovascular function and structure [2]: improved; kidney function and morphology [2]: improve
10 | N#Cc1ccc([C@H]2CCc3cncn32)c(F)c1 [LC1699] |  |  | blood pressure [3]: mildly decreased; circulating aldosterone levels [3]: significantly lower; hypokalemia [3]: corrected; selectivity (effects on the glucocorticoid axis, cortisol synthesis) [3]: poor selectivity
11 | CC(=O)S[C@@H]1CC2=CC(=O)CC[C@]2(C)[C@H]2CC[C@@]3(C)[C@@H](CC[C@@]34CCC(=O)O4)[C@H]12 [spironolactone] |  |  | cardiac and aortic medial hypertrophy [1]: attenuated; renal effects (albuminuria, azotemia, renovascular hypertrophy, glomerular injury, PAI-1 and osteopontin mRNA, tubulointerstitial fibrosis) [1]: prevented these renal effects; aldosterone ([1]; at 4 and 8 weeks of treatment): increased; angiotensin II and salt-stimulated PAI-1 mRNA expression ([1]; in the aorta and the heart): enhanced
